Experimental data published in patent US20090275497A1, “METHOD FOR IDENTIFYING MODULATORS OF THE ACTIVITY OF ION-CHANNELS RECEPTORS” (CENTRE NATIONAL DE LA RECHERCHE SCIENTIFIQUE (CNRS), priority 2004, published 2009).

What was measured:
[1] = system: oocyte not expressing P2X and GABA receptors; test: Calcium green fluorescence recording, oocytes expressing no receptors; assay type: cell-based, Xenopus; conditions: calcium green probe, FIG. 1
Method: (§1) Then, using video-microscopy (Nikon), the fluorescence emitted by oocytes maintained in a standard solution (Ringer solution containing 1.8 mM calcium chloride), perfused at 3 ml/min, has been recorded. […] Variations in fluorescence were analysed using IpLab software.

[2] = target: T1, rat P2X2 receptors (Rattus norvegicus, UniProt P49653); test: Calcium green fluorescence recording, oocytes expressing P2X2 receptors alone; assay type: cell-based; conditions: oocytes expressing only P2X2 receptors, FIG. 2; for fluorescence (calcium influx) on application of the substance alone: calcium green probe
T1 construct: expressed in transfected cells; host or cells: Xenopus oocytes (nuclear cDNA injection)
T1 sequence (P49653 1-472): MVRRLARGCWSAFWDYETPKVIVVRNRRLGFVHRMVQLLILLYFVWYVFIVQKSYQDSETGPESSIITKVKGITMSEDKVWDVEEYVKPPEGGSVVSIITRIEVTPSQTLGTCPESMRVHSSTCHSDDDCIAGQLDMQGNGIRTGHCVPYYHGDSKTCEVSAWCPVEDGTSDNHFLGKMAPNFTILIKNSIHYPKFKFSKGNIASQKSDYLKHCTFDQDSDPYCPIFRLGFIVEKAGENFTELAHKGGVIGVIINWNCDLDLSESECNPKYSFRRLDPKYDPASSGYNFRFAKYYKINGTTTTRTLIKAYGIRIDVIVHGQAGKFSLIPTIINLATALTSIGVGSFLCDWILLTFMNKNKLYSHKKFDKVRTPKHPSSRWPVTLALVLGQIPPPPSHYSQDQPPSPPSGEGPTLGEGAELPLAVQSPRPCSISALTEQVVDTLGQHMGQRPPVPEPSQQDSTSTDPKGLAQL
Method: as §1

[3] = system: P2X2 and GABA-A receptors (rat GABA-A alpha2 beta3); assay type: cell-based; conditions: for fluorescence of the calcium probe on application of the substance alone: 100 μM, oocytes co-expressing P2X2 and GABA-A receptors, resting potential
Method: (§2) Variations in fluorescence were analysed using IpLab software.

[4] = target: T2, P2X2 and GABA-A receptors (rat GABA-A alpha2 beta3) (Rattus norvegicus, UniProt P23576+P63079); assay type: cell-based
T2 construct: expressed in transfected cells; host or cells: Xenopus oocytes (nuclear cDNA injection)
T2 sequence (P23576 29-451): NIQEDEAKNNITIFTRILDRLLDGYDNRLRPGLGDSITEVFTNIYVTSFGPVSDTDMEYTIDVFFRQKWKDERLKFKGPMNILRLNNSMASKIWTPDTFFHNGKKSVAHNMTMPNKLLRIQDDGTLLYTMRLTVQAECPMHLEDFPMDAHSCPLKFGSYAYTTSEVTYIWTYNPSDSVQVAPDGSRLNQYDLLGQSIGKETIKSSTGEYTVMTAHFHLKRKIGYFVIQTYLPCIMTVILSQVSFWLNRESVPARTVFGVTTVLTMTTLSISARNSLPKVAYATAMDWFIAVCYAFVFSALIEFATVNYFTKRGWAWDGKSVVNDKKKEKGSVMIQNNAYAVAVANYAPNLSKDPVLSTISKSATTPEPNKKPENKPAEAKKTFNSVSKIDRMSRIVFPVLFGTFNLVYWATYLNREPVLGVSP
T2 sequence (P63079 26-473): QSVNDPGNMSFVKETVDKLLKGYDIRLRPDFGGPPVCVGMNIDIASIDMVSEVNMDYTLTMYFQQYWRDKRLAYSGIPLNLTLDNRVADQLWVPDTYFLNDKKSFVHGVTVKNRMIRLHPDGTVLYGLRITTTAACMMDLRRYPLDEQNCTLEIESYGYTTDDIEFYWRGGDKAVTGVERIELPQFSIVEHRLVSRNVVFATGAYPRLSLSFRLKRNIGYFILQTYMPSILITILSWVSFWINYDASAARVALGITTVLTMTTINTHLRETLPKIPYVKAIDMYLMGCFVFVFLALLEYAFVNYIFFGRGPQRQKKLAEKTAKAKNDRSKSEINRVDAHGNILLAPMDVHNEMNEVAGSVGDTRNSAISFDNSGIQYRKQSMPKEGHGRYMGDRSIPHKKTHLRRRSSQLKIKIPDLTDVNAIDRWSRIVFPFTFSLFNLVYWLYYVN
Method: as §2

[5] = oocyte co-expressing GABA-A and P2X2 receptors, FIG. 4

effect of GABA on the increase in fluorescence induced by ATP ([2]; co-application ATP+GABA)	percentage inhibition of the ATP calcium response ([4]; co-application ATP+GABA 100 μM of each, depends on expression ratio of P2X and GABA receptors)	fluorescence intensity when GABA is applied at the peak of the ATP response [4, 5]	fluorescence when application of GABA is stopped during co-application of ATP and GABA [4, 5]	calcium response on co-application ATP+GABA compared with ATP alone ([3]; ATP+GABA 100 μM of each, FIG. 3)	SMILES	modification of the fluorescence on application [1]	fluorescence (calcium influx) on application of the substance alone [2]	fluorescence of the calcium probe on application of the substance alone [3]
					Nc1ncnc2c1ncn2[C@@H]1O[C@H](COP(=O)(O)OP(=O)(O)OP(=O)(O)O)[C@@H](O)[C@H]1O [ATP]	No modification	transient increase in fluorescence	marked transient increase
not altered	20-25%	decrease in fluorescence intensity	increase in fluorescence	lower calcium response	NCCCC(=O)O [GABA, gamma-Aminobutyric acid]	No modification	no effect	does not modify fluorescence intensity
